Data: patent US5817826A, “Oxazolinone derivatives having cytosolic phospholipase A2 inhibitory activity” (Shionogi & Co., Ltd., priority 1993, dated 1998)

Tests used:
cytosolic PLA2 = molecular target: T1, cytosolic PLA2 (Homo sapiens, UniProt P47712); assay: Cytosolic PLA2 inhibition activity (sonicated liposomes with 1-palmitoyl-2-[14C]arachidonyl-sn-glycero-3-phosphocholine); type: biochemical; settings: for IC50: 2 μM radiolabeled phosphatidylcholine liposomes, 1 mM CaCl2, pH 7.4; for inhibition at 2 µM: compound at 2 μM, relative to enzyme control
T1 sequence (P47712 1-749): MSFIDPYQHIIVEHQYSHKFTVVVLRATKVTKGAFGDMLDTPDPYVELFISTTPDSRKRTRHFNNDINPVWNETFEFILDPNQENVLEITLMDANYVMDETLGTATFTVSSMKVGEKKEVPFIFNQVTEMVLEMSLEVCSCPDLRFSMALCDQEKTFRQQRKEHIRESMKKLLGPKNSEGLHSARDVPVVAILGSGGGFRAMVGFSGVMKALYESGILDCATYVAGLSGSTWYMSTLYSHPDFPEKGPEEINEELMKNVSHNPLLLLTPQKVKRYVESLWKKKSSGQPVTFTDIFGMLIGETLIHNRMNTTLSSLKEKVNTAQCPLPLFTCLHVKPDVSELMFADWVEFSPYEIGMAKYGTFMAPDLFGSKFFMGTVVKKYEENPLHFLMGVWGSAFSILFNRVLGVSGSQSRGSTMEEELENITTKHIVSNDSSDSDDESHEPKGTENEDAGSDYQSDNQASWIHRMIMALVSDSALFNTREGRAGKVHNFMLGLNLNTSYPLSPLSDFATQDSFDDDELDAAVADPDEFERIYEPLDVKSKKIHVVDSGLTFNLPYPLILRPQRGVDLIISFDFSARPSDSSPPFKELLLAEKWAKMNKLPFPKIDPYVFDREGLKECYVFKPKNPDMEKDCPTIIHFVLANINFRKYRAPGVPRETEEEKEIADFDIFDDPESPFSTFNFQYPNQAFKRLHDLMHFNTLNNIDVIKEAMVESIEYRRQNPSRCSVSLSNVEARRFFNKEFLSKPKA
Procedure: Taking the above matter into consideration, the compounds of the present invention were evaluated for their effect on cytosolic PLA2 activity as described in published literature [Kramer, R. M., Robers, E. F., Manetta, J. and Putanam, J. E. et al., J. Biol. Chem. 268 (8): 5268-5272, 1991]. Briefly, PLA2 activity was assayed using sonicated liposomes containing 1-palmitoyl-2-[^14 C]arachidonyl-sn-glycero-3-phosphocholine and sn-1,2-dioleoyl glycerol at a molar ratio of 2:1. The assay mixture contained 1 mM CaCl2, 2 mM 2-mercaptoethanol, 150 mM NaCl, 50 mM Hepes, pH 7.4, and 0.1 mg/ml BSA. The substrate consisted of 2 μM radiolabeled phosphatidycholine liposomes containing 1 μM dioleoyl glycerol.
The amount of released fatty acids in the reaction as mentioned above was quantitated by a liquid scintillation counter. Separately, the same assay was performed except that the compound of the present invention was not added to serve as the enzyme control. The inhibitioory activity was expressed as a percent (%) of PLA2 activity in the enzyme control, and thereby 50% inhibition concentration was calculated.

[1] = hygroscopicity (printed with the elemental analysis); type: physicochemical; settings: amorphous form

| SMILES | IC50 (cytosolic PLA2) [µM] | inhibition at 2 µM (cytosolic PLA2) [%] | hygroscopicity [1] [µg/min] |
| --- | --- | --- | --- |
| CCCCn1c(-c2ccccc2)c(-c2ccccc2)oc1=O [Compound 0044] | 54 | 19 | – |
| O=c1oc(-c2ccccc2)c(-c2ccccc2)n1Cc1ccc(Cl)s1 [Compound 0086] | 8.3 | 19 | – |
| CC(C)=CCC/C(C)=C/CC/C(C)=C/Cn1c(-c2ccccc2)c(-c2ccccc2)oc1=O [Compound 0069] | 153 | – | – |
| O=C(Cn1c(-c2ccccc2)c(-c2ccccc2)oc1=O)OC(c1ccccc1)c1ccccc1 [Compound 0003] | 52 | – | – |
| O=c1[nH]c(-c2ccccc2)c(-c2ccc(S(=O)(=O)NCCC[n+]3ccccc3)cc2)o1 [Compound 0028] | 103 | – | – |
| Cc1noc(C)c1Cn1c(-c2ccccc2)c(-c2ccccc2)oc1=O [Compound 0109] | 250 | – | – |
| CC(C)=CCC/C(C)=C/CN1C(=O)O[C@@H](c2ccccc2)[C@H]1c1ccccc1 [Compound 0182] | 66 | – | – |
| CC(C)=CCn1c(-c2ccccc2)c(-c2ccccc2)oc1=O [Compound 0071] | 13 | 18 | – |
| O=c1oc(C(c2ccccc2)c2ccccc2)cn1CCCOc1ccc(C(F)(F)F)cc1 [Compound 0153] | 126 | – | – |
| CC(C)=CCC/C(C)=C/Cn1c(-c2ccccc2)c(-c2ccccc2)oc1=O [Compound 0070] | 4.3 | 46 | – |
| O=c1[nH]cc(C(c2ccccc2)c2ccccc2)o1 [Compound 0142] | 220 | – | – |
| O=c1oc(-c2ccccc2)c(-c2ccccc2)n1Cc1ccccc1F [Compound 0047, 3-(2-Fluorobenzyl)-4,5-diphenyl-oxazol-2-one] | 35 | 17 | – |
| CC(C)=CCC/C(C)=C\CN1C(=O)O[C@@H](c2ccccc2)[C@@H]1c1ccccc1 [Compound 0313] | ~50 | 13 | – |
| CC(C)=CCC/C(C)=C/CN1C(=O)O[C@@H](c2cccs2)[C@@H]1c1ccccc1 [Compound 0325] | 8.7 | 32 | – |
| O=C1O[C@@H](c2ccccc2)[C@@H](c2ccccc2)N1Cc1cccc(F)c1 [Compound 0181] | 101 | – | – |
| O=c1oc(-c2ccccc2)c(-c2ccccc2)n1Cc1ccccn1 [Compound 0091, 3-(2'-Pyridylmethyl)-4,5-diphenyl-oxazol-2-one] | 105 | 11 | – |
| CC(C)=CCC/C(C)=C/CC/C(C)=C/CN1C(=O)O[C@H](c2ccccc2)[C@H]1c1ccccc1 [Compound 0303] | 50 | 18 | – |
| O=C1O[C@@H](c2ccccc2)[C@H](c2ccccc2)N1CCCCc1ccccc1 [Compound 0289] | 6.6 | 36 | – |
| O=c1oc(-c2ccccc2)c(-c2ccccc2)n1COCc1ccccc1 [Compound 0099] | 42 | 12 | – |
| O=c1oc(-c2ccccc2)cn1Cc1ccccc1 [Compound 0073, 3-Benzyl-5-phenyl-4-oxazolin-2-one] | 50 | – | – |
| CC(C)=CCn1cc(C(c2ccccc2)(c2ccccc2)c2ccccc2)oc1=O [Compound 0140] | 89 | – | – |
| O=c1oc(-c2ccccc2)c(-c2ccccc2)n1Cc1ccc(F)cc1 [Compound 0048, 3-(4-Fluorobenzyl)-4,5-diphenyl-oxazol-2-one] | 17 | – | – |
| CC(C)=CCC/C(C)=C/Cn1cc(-c2ccccc2)oc1=O [Compound 0095] | 35 | 26 | – |
| O=C(NCCN1CCCCC1)c1[nH]c(=O)oc1-c1ccccc1 [Compound 0030] | 103 | – | 5 |
| O=c1oc(-c2ccccc2)c(-c2ccccc2)n1CCCc1ccccc1 [Compound 0092] | 8.3 | 28 | – |
| O=C(O)c1ccc(-c2oc(=O)n(Cc3ccccc3)c2-c2ccc(C(=O)O)cc2)cc1 [Compound 0054, 3-Benzyl-4,5-bis-(4-hydroxycarbonylphenyl)-3-oxazolin-2-one] | 124 | – | – |

| SMILES | IC50 (cytosolic PLA2) [µM] | inhibition at 2 µM (cytosolic PLA2) [%] | hygroscopicity [1] [µg/min] |
| --- | --- | --- | --- |
| O=C(O)c1[nH]c(=O)oc1-c1ccccc1 [Compound 0029] | 103 | – | – |
| COC(=O)c1c(-c2ccccc2)oc(=O)n1Cc1ccccc1 [Compound 0079] | 218 | – | – |
| CC(C)=CCn1cc(C(c2ccccc2)c2ccccc2)oc1=O [Compound 0155] | 57 | – | – |
| O=c1oc(-c2ccccc2)c(-c2ccccc2)n1Cc1ccccc1 [Compound 0001] | 6 | 34 | – |
| CC(C)=CCC/C(C)=C/CN1C(=O)O[C@H](c2ccccc2)[C@@H]1c1ccccc1 [Compound 0169] | 85 | – | – |
| O=c1oc(-c2ccccc2)c(-c2ccccc2)n1S(=O)(=O)c1ccc2ccccc2c1 [Compound 0067] | > 50 | – | – |
| O=c1oc(-c2ccccc2)c(-c2ccccc2)n1CCc1ccccc1 [Compound 0075, 4,5-Diphenyl-3-N-phenylethyl-3-oxazolin-2-one] | 14 | 21 | – |
| CC(C)=CCC/C(C)=C/Cn1cc(C(c2ccccc2)c2ccccc2)oc1=O [Compound 0156] | 120 | – | – |
| O=C1O[C@H](c2ccccc2)[C@@H](c2ccccc2)N1CCCCc1ccccc1 [Compound 0247] | 10 | 23 | – |
| O=c1oc(-c2ccccc2)c(-c2ccccc2)n1CCCCOc1ccccc1 [Compound 0090] | 65 | 14 | – |
| CC(C)=CCC/C(C)=C/CN1C(=O)OC[C@@H]1Cc1ccccc1 [Compound 0315] | 90 | 22 | – |
| O=C1O[C@H](c2ccccc2)[C@H](c2ccccc2)N1Cc1ccc(Cl)s1 [Compound 0199] | 32 | 32 | – |
| Cn1c(-c2ccccc2)c(-c2ccccc2)oc1=O [Compound 0002] | 68 | – | – |
| C#CCn1c(-c2ccccc2)c(-c2ccccc2)oc1=O [Compound 0062, 3-(2-propynyl)-4,5-diphenyl-oxazol-2-one] | 50 | – | – |
| CC(C)=CCC[C@@H](C)CCN1C(=O)O[C@@H](c2ccccc2)[C@@H]1c1ccccc1 [Compound 0346] | 3 | 47 | – |
| CC(C)=CCC/C(C)=C/CN1C(=O)O[C@@H](c2ccccc2)[C@@H]1c1ccccc1 [Compound 0288] | 2 | 50 | – |
| O=C1O[C@H](c2ccccc2)[C@@H](c2ccccc2)N1Cc1cccc(F)c1 [Compound 0212] | 43 | 21 | – |
| O=C1O[C@H](c2ccccc2)[C@H](c2ccccc2)N1Cc1cccc(F)c1 [Compound 0168] | 66 | – | – |
| O=c1oc(-c2ccccc2)cn1C(c1ccccc1)c1ccccc1 [Compound 0097] | 28 | 48 | – |
| CN1CCN(S(=O)(=O)c2ccc(-c3oc(=O)[nH]c3-c3ccccc3)cc2)CC1 [Compound 0037] | 207 | – | – |
| O=c1oc(-c2ccccc2)c(-c2ccccc2)n1CCCCc1ccccc1 [Compound 0108] | 59 | – | – |
| CC(C)=CCC[C@H](C)CCN1C(=O)O[C@@H](c2ccccc2)[C@@H]1c1ccccc1 [Compound 0347] | 7.4 | 33 | – |
| O=c1oc(-c2ccccc2)c(-c2ccccc2)n1Cc1cccc(F)c1 [Compound 0039, 3-(3-Fluorobenzyl)-4,5-diphenyl-oxazol-2-one] | 6.2 | 24 | – |
| O=C1O[C@H](c2ccccc2)[C@@H](c2ccccc2)N1Cc1ccc(Cl)s1 [Compound 0246] | 50 | 20 | – |
| CC(C)=CCC/C(C)=C/CN1C(=O)O[C@H](c2ccccc2)[C@H]1c1ccccc1 [Compound 0213] | 9.3 | 24 | – |
| CC(C)=CCC/C(C)=C\CN1C(=O)O[C@H](c2ccccc2)[C@H]1c1ccccc1 [Compound 0296] | 11 | 21 | – |
